Common to all, as to experiment: Eurofins kinase profiling
Holding throughout (assay type): biochemical

The target in assay [1] is T1, TrkA(h) (Homo sapiens, UniProt P04629).
T1 construct: purchased Eurofins KinaseProfiler
The following applies: read-out: residual kinase activity TrkA(h). The method, boiled down: (§1)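 Single-point screen at 1 µM compound; radiometric read-out of kinase activity using radiolabeled phosphate, per standard KinaseProfiler protocol.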

The target in assay [2] is T2, Flt4(h) (Homo sapiens, UniProt P35916).
T2 construct: purchased Eurofins KinaseProfiler
The following applies: read-out: residual kinase activity Flt4(h). The method, boiled down:
as §1

The target in assay [3] is T3, cKit(D816H)(h) (Homo sapiens, UniProt P10721, D816H).
T3 construct: purchased Eurofins KinaseProfiler
The following applies: read-out: residual kinase activity cKit(D816H)(h). The method, boiled down:
as §1

Assay [4] addresses T4, PI3 Kinase (p110a/p85a)(h) (Homo sapiens, UniProt P42336).
T4 construct: purchased Eurofins KinaseProfiler
Conditions: read-out: residual kinase activity PI3 Kinase (p110a/p85a)(h). Summed up: as §1

The target of assay [5] is T5, PKCι(h) (Homo sapiens, UniProt P41743).
T5 construct: purchased Eurofins KinaseProfiler
T5 sequence (P41743 1-596): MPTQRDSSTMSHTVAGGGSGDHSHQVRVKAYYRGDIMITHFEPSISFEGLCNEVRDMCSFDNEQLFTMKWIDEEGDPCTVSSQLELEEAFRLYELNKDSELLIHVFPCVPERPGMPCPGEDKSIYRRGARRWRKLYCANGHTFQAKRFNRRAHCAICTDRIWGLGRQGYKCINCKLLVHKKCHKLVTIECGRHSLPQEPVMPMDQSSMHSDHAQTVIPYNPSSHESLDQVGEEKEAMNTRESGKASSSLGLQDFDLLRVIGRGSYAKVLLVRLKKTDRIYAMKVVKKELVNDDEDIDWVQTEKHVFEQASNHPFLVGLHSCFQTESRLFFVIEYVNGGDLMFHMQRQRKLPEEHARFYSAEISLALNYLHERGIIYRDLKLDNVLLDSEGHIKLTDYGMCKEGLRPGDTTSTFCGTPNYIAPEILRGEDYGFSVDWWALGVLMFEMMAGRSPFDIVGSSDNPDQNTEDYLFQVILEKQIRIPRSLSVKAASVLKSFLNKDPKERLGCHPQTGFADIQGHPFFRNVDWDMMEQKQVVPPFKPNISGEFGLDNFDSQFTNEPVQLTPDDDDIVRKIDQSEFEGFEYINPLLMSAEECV
The following applies: read-out: residual kinase activity PKCι(h). The method, boiled down: as §1

In assay [6] the target is T6, CK1γ3(h) (Homo sapiens, UniProt Q9Y6M4).
T6 construct: purchased Eurofins KinaseProfiler
The following applies: read-out: residual kinase activity CK1γ3(h). The method, boiled down:
as §1

Assay [7] has as its target T7, Fer(h) (Homo sapiens, UniProt P16591).
T7 construct: purchased Eurofins KinaseProfiler
Conditions: read-out: residual kinase activity Fer(h). Summed up:
as §1

The target in assay [8] is T8, IR(h), activated (Homo sapiens, UniProt P06213).
T8 construct: purchased Eurofins KinaseProfiler
Conditions: 1 µM. Summed up: as §1

In assay [9] the target is T9, Flt1(h) (Homo sapiens, UniProt P17948).
T9 construct: purchased Eurofins KinaseProfiler
Conditions: read-out: residual kinase activity Flt1(h). Summed up: as §1

Assay [10] has as its target T10, cKit(h) (Homo sapiens, UniProt P10721).
T10 construct: purchased Eurofins KinaseProfiler
The following applies: read-out: residual kinase activity cKit(h). The method, boiled down:
as §1

Assay [11] addresses T11, EGFR(h) (Homo sapiens, UniProt P00533).
T11 construct: purchased Eurofins KinaseProfiler
Conditions: read-out: residual kinase activity EGFR(h). Summed up: as §1

The target in assay [12] is T12, CSK(h) (Homo sapiens, UniProt P41240).
T12 construct: purchased Eurofins KinaseProfiler
Conditions: read-out: residual kinase activity CSK(h). Summed up: as §1

The target in assay [13] is T13, CK1γ2(h) (Homo sapiens, UniProt P78368).
T13 construct: purchased Eurofins KinaseProfiler
Conditions: read-out: residual kinase activity CK1γ2(h). Summed up:
as §1

Assay [14] addresses T14, Axl(h) (Homo sapiens, UniProt P30530).
T14 construct: purchased Eurofins KinaseProfiler
T14 sequence (P30530 26-894): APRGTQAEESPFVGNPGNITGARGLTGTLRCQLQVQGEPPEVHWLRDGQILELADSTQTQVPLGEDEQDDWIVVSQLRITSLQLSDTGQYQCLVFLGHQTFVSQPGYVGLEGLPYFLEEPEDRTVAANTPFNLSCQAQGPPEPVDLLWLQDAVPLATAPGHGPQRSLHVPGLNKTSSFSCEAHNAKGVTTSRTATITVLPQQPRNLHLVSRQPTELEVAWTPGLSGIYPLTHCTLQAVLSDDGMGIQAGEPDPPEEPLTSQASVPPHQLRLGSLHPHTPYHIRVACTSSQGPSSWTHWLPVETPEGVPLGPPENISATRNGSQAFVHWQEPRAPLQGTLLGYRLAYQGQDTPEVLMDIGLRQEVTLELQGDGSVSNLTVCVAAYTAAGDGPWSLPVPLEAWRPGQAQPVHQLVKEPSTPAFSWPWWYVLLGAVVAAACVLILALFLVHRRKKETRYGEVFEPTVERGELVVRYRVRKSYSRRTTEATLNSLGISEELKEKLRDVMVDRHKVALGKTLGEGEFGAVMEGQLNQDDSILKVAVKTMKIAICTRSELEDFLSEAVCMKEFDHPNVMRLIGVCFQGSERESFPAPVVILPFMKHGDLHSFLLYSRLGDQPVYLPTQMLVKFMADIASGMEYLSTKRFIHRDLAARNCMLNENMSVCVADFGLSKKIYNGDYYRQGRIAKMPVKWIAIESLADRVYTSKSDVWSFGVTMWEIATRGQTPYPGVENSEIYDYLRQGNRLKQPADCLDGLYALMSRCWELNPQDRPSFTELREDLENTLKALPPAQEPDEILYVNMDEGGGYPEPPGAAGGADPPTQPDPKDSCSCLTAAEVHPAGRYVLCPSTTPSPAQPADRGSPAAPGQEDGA
Conditions: read-out: residual kinase activity Axl(h). Summed up: as §1

Assay [15] addresses T15, EphA2(h) (Homo sapiens, UniProt P29317).
T15 construct: purchased Eurofins KinaseProfiler
Conditions: read-out: residual kinase activity EphA2(h). The method, boiled down: as §1

Each structure is given as a SMILES string.

The results in this text go back to article PMC10528299, “Targeting FAK/PYK2 with SJP1602 for Anti-Tumor Activity in Triple-Negative Breast Cancer” (Current Issues in Molecular Biology, 2023).

T13 sequence (P78368 whole entry): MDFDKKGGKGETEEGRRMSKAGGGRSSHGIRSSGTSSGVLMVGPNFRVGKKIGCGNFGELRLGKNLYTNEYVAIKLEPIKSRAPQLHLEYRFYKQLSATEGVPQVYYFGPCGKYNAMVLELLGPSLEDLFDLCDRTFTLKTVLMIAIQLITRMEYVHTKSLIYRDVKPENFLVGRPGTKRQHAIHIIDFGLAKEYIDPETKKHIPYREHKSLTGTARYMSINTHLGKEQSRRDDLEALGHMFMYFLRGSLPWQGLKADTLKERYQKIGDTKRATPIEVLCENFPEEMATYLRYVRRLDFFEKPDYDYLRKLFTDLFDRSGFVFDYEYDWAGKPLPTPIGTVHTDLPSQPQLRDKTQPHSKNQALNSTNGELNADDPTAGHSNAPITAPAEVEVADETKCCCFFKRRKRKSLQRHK
T6 sequence (Q9Y6M4 whole entry): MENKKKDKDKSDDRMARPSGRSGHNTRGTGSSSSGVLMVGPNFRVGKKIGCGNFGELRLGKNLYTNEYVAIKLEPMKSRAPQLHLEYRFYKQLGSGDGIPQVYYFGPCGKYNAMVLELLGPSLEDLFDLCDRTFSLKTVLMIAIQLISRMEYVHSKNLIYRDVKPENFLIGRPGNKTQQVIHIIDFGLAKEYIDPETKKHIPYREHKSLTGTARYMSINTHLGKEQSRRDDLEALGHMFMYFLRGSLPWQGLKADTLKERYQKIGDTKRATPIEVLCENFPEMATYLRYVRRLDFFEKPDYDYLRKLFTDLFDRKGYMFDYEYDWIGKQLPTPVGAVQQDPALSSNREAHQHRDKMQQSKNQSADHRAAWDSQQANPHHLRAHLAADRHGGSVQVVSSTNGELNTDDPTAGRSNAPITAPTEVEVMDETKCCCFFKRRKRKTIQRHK
T9 sequence (P17948 27-1338): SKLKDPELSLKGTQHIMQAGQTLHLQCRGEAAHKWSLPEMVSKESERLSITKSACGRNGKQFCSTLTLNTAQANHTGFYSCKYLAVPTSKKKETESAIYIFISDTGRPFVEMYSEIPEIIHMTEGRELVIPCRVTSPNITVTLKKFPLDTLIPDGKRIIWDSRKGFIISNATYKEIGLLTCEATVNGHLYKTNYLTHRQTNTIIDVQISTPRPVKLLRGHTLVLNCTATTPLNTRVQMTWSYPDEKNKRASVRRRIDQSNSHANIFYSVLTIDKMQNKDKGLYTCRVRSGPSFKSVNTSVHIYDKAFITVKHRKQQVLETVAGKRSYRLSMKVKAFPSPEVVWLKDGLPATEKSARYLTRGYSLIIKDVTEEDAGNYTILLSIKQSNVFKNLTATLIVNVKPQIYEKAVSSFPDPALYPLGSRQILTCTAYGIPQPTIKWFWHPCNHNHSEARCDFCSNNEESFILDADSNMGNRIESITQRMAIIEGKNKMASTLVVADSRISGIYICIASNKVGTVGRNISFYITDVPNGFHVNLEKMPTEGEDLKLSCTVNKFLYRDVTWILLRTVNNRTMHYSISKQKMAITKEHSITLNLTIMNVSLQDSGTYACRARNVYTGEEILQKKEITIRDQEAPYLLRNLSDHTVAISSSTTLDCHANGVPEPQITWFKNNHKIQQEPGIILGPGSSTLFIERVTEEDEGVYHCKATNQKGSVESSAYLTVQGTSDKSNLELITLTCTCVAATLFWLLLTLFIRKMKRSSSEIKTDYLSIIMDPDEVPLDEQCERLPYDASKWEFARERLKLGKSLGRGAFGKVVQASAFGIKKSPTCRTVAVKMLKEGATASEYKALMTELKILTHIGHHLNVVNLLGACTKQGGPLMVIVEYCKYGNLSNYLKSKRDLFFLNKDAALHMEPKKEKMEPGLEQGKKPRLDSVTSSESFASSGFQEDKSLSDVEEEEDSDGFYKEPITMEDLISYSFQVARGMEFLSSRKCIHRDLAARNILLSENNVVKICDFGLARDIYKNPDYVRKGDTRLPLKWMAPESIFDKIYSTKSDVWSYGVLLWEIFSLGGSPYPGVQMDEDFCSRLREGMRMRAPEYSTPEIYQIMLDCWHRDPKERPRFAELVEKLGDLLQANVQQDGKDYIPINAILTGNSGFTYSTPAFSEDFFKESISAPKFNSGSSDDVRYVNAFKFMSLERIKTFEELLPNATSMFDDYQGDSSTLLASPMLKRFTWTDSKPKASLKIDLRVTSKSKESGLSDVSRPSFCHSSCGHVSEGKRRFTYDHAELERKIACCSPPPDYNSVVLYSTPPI
T15 sequence (P29317 24-976): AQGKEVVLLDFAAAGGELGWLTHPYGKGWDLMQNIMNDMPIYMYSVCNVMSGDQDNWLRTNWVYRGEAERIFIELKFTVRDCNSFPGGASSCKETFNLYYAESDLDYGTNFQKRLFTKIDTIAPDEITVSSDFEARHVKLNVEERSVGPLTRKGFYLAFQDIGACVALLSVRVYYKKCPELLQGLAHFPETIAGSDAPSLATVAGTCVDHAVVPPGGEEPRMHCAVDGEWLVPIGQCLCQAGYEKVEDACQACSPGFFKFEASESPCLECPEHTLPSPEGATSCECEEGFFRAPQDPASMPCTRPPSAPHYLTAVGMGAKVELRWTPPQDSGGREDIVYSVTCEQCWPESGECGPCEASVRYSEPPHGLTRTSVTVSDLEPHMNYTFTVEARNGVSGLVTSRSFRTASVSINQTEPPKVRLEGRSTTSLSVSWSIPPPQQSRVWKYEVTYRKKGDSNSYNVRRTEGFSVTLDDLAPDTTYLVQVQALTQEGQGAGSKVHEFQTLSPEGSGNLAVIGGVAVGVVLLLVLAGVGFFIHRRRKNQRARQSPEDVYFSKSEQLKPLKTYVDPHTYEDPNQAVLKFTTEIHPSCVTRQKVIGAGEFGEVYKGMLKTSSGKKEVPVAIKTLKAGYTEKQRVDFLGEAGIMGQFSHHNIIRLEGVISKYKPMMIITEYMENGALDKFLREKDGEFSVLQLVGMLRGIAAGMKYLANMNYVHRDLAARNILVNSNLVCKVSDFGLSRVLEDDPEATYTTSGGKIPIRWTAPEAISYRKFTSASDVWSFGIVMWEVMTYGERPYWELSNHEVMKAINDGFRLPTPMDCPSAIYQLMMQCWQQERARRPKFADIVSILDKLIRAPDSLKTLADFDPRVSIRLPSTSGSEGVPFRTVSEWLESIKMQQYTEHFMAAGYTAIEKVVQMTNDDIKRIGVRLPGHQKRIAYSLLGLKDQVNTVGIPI
T12 sequence (P41240 whole entry): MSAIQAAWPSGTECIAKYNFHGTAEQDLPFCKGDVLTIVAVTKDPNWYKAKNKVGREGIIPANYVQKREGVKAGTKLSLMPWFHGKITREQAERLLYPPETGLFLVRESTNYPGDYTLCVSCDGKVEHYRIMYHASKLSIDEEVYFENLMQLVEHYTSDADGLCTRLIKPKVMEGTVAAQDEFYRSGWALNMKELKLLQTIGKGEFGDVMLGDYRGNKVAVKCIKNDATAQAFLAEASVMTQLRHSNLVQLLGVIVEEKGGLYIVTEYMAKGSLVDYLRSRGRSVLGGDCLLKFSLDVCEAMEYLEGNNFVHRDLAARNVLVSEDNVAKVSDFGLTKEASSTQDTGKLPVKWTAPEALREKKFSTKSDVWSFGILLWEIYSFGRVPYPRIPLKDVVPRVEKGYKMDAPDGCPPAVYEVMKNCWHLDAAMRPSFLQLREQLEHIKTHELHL
T10 sequence (P10721 26-976): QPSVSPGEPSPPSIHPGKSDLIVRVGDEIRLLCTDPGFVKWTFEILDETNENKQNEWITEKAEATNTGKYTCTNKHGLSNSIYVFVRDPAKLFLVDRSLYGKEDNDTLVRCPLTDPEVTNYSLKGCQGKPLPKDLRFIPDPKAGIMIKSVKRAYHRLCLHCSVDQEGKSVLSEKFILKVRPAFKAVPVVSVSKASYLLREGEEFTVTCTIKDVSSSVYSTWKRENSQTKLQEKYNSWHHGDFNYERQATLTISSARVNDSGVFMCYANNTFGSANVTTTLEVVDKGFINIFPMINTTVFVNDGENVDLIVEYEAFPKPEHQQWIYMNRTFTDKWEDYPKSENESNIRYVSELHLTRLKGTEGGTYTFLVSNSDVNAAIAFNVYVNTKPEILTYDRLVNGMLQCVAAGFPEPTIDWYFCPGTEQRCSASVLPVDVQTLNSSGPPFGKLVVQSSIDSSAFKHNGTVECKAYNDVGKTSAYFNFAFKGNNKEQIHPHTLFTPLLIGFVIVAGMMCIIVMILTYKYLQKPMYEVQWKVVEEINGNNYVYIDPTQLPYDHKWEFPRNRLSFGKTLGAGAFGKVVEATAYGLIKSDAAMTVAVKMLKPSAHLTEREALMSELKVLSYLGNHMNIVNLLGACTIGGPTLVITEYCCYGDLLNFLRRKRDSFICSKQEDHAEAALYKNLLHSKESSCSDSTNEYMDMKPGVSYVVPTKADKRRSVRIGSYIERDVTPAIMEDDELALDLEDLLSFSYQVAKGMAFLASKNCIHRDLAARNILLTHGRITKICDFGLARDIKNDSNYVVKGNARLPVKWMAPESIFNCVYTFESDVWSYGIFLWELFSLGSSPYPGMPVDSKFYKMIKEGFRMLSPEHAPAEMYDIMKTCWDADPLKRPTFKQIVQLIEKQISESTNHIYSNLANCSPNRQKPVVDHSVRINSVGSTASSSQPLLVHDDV
T3 sequence (P10721 26-976 D816H): as the sequence (P10721 26-976) above, with D791H counted along it

For `CONC(=O)c1ccccc1Nc1cc(Nc2cc(C)nn2C(C)C)ncc1Cl` [GSK2256098], the remaining activity at 1 µM in [1] worked out at 103%; in assay [2], 67%; in [3], 98%; in assay [4] it was 83%; in [5], 106%; in [6] it was 95%. For the same compound, the remaining activity at 1 µM is 105% in assay [7]; 94% in assay [9]; 93% in [10]; 98% in [11]; 92% in assay [12]; 97% in assay [13]. Besides, the remaining activity at 1 µM was 84% in assay [14] and 92% in assay [15]. Moreover, the “residual kinase activity IR(h), activated” value in assay [8] is recorded as 76.

With `CNC(=O)c1cccc(C)c1Nc1nc(Nc2ccc(N3CCN(C4C5CC6CC4CC(O)(C6)C5)CC3)cc2OC)ncc1C(F)(F)F` (stereo not drawn) [SJP1602, 2-((2-((4-(4-((2s,5r)-5-hydroxyadamantan-2-yl)piperazin-1-yl)-2-methoxyphenyl)amino)-5-(trifluoromethyl)pyrimidin-4-yl)amino)-N,3-dimethylbenzamide], the remaining activity at 1 µM worked out at 109% in assay [1]; 104% in [2]; 124% in assay [3]; 104% in [4]; 93% in [5]; 88% in assay [6]. The remaining activity at 1 µM came to 68% in assay [7]; 106% in assay [9]; 97% in [10]; 112% in [11]; 83% in assay [12]; 101% in [13]. The remaining activity at 1 µM in assay [14] and in assay [15] was 105% each time. Moreover, the “residual kinase activity IR(h), activated” value in assay [8] is 61.

Take `CNC(=O)c1ccc(Nc2ncc(C(F)(F)F)c(NCc3nccnc3N(C)S(C)(=O)=O)n2)cc1` [VS-6063, Defactinib]: the remaining activity at 1 µM in assay [1] is 2%; in assay [2], -3%; in assay [3], 94%; in assay [4], 103%; in [5] it was 100%; in assay [6], 84%. In addition, the remaining activity at 1 µM is 31% in assay [7]; 21% in assay [9]; 80% in assay [10]; 105% in assay [11]; 88% in assay [12]; 64% in assay [13]. The remaining activity at 1 µM is 57% in assay [14] and 91% in [15]. Further, the “residual kinase activity IR(h), activated” value in [8] is given as 30.
